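Step 1: Grow cells in 96-well plates. Step 2: Expose to compound for 48 hours at 5 concentrations. Step 3: Interpolate endpoints linearly; if unreached, use highest concentration. Abbreviation: GI50, concentration required for 50% inhibition of growth. The concentration for full growth arrest is given as TGI.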
Key:
Experiment in all cases: NCI tumour cell line growth inhibition, 48 h
K-562 leukemia = tested on: K-562 leukemia
SF-295 CNS = tested on: SF-295 CNS
ACHN renal = tested on: ACHN renal
RPMI-8226 leukemia = tested on: RPMI-8226 leukemia
CCRF-CEM leukemia = tested on: CCRF-CEM leukemia
HOP-62 NSCLC = tested on: HOP-62 NSCLC
OVCAR-3 ovarian = tested on: OVCAR-3 ovarian
MCF7 breast = tested on: MCF7 breast
M14 melanoma = tested on: M14 melanoma
HS 578T breast = tested on: HS 578T breast

Row | Compound | TGI (K-562 leukemia) [µM] | TGI (SF-295 CNS) [µM] | TGI (ACHN renal) [µM] | TGI (RPMI-8226 leukemia) [µM] | TGI (CCRF-CEM leukemia) [µM] | GI50 (HOP-62 NSCLC) [µM] | TGI (HOP-62 NSCLC) [µM] | GI50 (OVCAR-3 ovarian) [µM] | TGI (OVCAR-3 ovarian) [µM] | GI50 (MCF7 breast) [µM] | TGI (MCF7 breast) [µM] | GI50 (M14 melanoma) [µM] | TGI (M14 melanoma) [µM] | GI50 (SF-295 CNS) [µM] | GI50 (HS 578T breast) [µM] | TGI (HS 578T breast) [µM] | GI50 (ACHN renal) [µM] | GI50 (RPMI-8226 leukemia) [µM] | GI50 (CCRF-CEM leukemia) [µM] | GI50 (K-562 leukemia) [µM]
1 | COc1cc(/C=N/N=C(\N)NO)ccc1O | > 100 | > 100 | > 100 | > 100 | > 100 |  |  |  |  |  |  |  |  |  |  |  |  |  |  | 
2 | CC(C)C(=O)Nc1ccc(-c2nc(-c3cccc(OCCN4CCOCC4)c3)c(-c3ccnc(Br)c3)[nH]2)cc1 |  | 2.88 | 94.1 | 4 | > 100 | 2.94 | 14.5 | 4.24 | > 100 | 1.89 | 4.92 | 1.93 | 4.46 | 1.09 | 1.04 | 3.69 | 3.87 | 1.09 | 3.27 | 
3 | CC(C)NC(=O)OCc1nnn2c1CCC2 | > 100 | > 100 | > 100 |  | > 100 |  | > 100 |  | > 100 |  |  |  | > 100 |  |  |  |  |  |  | 
4 | O=c1ccc2c(Cl)cccc2o1 | > 100 | > 100 | > 100 | > 100 | > 100 |  | > 100 |  | > 100 |  | > 100 |  | > 100 |  |  | > 100 |  |  |  | 
5 | CSC1=C(SC)C(=O)c2cn(C)c(=O)cc2C1=O | 0.424 | 26 | 3.32 | > 100 | 0.826 |  | 24.8 |  | 3.54 |  | 4.49 |  | 3.14 |  |  | > 26.5 |  |  |  | 
6 | CC(C(=O)NCCNC(=O)CCCC(=O)N(C)O)C(=O)NCCNC(=O)CCCC(=O)N(C)O | > 100 | > 100 | > 100 | > 100 | > 100 |  | > 100 |  | > 100 |  | > 100 |  | > 100 |  |  | > 100 |  |  |  | 
7 | C1=Nc2ccccc2Cn2nncc21 | > 100 |  | > 100 | > 100 | > 100 |  | > 100 |  | > 100 |  |  |  | > 100 |  |  |  |  |  |  | 
8 | OC(c1ccccc1)C1CC2C=CC1C2 (stereo not given) | > 100 | > 100 | > 100 | > 100 | > 100 |  | > 100 |  | > 100 |  |  |  | > 100 |  |  |  |  |  |  | 
9 | COc1ccc(N2C(=O)C(=O)N(C)C2=O)c2ccccc12 | > 10 | > 10 | > 10 | > 10 | > 10 |  | > 10 |  | > 10 |  | > 10 |  | > 10 |  |  | > 10 |  |  |  | 
10 | COC1=CC(=O)c2c(c(COC(C)=O)cn2C)C1=O | 0.707 | 0.0692 | 0.173 | 0.584 | 0.71 |  |  |  | 0.395 |  | 2.5 |  | 0.195 |  |  |  |  |  |  | 
11 | CC1(CO)C(O)CCC2(C)C1C(O)CC1CC3CC12CCC3(O)CO (stereo not given) | > 225 | > 104 |  | > 196 | > 225 |  | > 225 |  | > 225 |  | > 225 |  |  |  |  |  |  |  |  | 
12 | Fc1ccc(Nc2ncc(-c3cc(F)c(Cl)cc3Cl)s2)cc1Cl | 15.5 | 31 | 51.5 | 25.1 |  | 9.43 | 21.8 | 10.5 | 23.9 |  | 2.48 |  |  | 15.9 | 11.5 | 36.4 | 19.3 | 9.38 |  | 3.46

From PubChem BioAssay (NCI)
